Assay results reported in patent US12497460B2, “Anti-MSR1 antibodies and methods of use thereof” (REGENERON PHARMACEUTICALS, INC., priority 2018, dated 2025).
≈ marks a conversion by molar mass, not a printed value. Entries after “also recorded” stand apart in the source; their conditions may differ. Like-named read-outs stand apart in the source and are kept apart here. Marks after values point to notes of the source that are not given here.

Assays:
[1] = Solubility in water of linker-payloads
[2] = tested on: Msr1^hu/hu ApoE^−/− mice, peritoneal cells; assay: Ex vivo LPS-induced cytokine production by peritoneal cells after in vivo dosing; parameters: species or system mouse
Description: (§1) To examine the anti-inflammatory effect of the anti-MSR1 antibody-steroid conjugates, an ex-vivo and in vivo LPS-induced inflammatory immune response model was performed.
(§2) Generation of a mouse inflammatory immune response model. Mice homozygously expressing human MSR1 extracellular domain in place of the mouse MSR1 extracellular domain and with a homozygous deletion of the ApoE gene were utilized (resulting mice referred to as Msr1^hu/hu ApoE^−/− mice).
(§3) Assay protocol for ex vivo LPS-induced responses. In ex vivo LPS challenge experiments, mice were intraperitoneally administered with 10 μL/g of anti-MSR1 antibody-steroid conjugates (H1H21234N-N297Q-LP13), isotype control steroid conjugate (Isotype control-LP13), unconjugated anti-MSR1 antibody (H1H21234N-N297Q) and isotype control antibodies at different time points (24, 48, and 72 hours) prior to harvesting the peritoneal cells from peritoneal cavity. […] All mice were sacrificed at 0 hour time point and peritoneal cells were obtained from the peritoneum by the peritoneal lavage technique. In brief, 5 mL of ice cold 1×PBS (ThermoFisher Scientific, Cat #20012027) containing 2% BSA (Gibco, Cat #A9576) and 0.6 mM EDTA (ThermoFisher Scientific, Cat #15575020) were injected into the peritoneal cavity using 27 g needle. […] The resuspended cells were plated at 500,000 cells per well in 24-well tissues culture plates and incubated with or without 10 ng/mL of LPS for 18 hours.
Measurement of cytokines at 18 hours post-LPS ex vivo challenge. Supernatants were collected into 96-well round bottom tissue culture plates at 18 hours post-ex vivo LPS challenge and stored at […] until further analysis. Cytokine concentrations in the supernatants were measured using a Proinflammatory Panel 1 (mouse) multiplex immunoassay kit (MesoScale Diagnostics, Cat #K15048D) according to manufacturer's instructions. Electrochemiluminescence was read on a Meso Scale Diagnostics SECTOR® instrument. Data analysis was performed using GraphPad Prism™ software. Statistical significance within the groups was determined by one-way Anova with Turkey's multiple comparison post-test (*p<0.01; **p<0.001; ***p<0.0001).

[3] = tested on: Msr1^hu/hu ApoE^−/− mice, peritoneal macrophages; assay: LPS-mediated expression of CD80 on peritoneal macrophages (flow cytometry); type: in vivo, mouse; conditions: administered 2 hours before
Description: as §3
(§4) Assay protocol for in vivo LPS-induced responses. In in vivo LPS challenge experiments, mice were intraperitoneally administered with 10 μL/g of decreasing concentrations of anti-MSR1 antibody-steroid conjugates (H1H21234N-N297Q-LP13) and isotype control steroid conjugate (Isotype control-N297Q-LP13) at 24 hours prior to in vivo LPS challenge. PBS and free steroid P4 were intraperitoneally injected at 2 hours prior to in vivo LPS challenge. At 0 hour time point, three large drops of blood (volume ˜ 100 μL) were collected from the maxillary vein of each mouse into serum gel separator tubes. The tubes were centrifuged at 2200-2500 rpm for 15 minutes, and the serum was collected into 96-well plates for subsequent measurement of cytokines. At 18 hours post in vivo LPS challenge, the peritoneal cells were obtained from periotenal cavity as aforementioned for subsequent flow cytometry analysis.
Analysis of expression of activation markers on peritoneal macrophages after LPS ex vivo challenge. Upon collection of supernatants for cytokine analysis, the plates were washed twice with 1×PBS w/o Ca^++/Mg2^++ (ThermoFisher Scientific, Cat #14190144), and the adherent peritoneal cells were harvested by addition of 250-300 μL of cold Macrophage Detachment Solution DXF (PromoCell, Cat #C41330) for 40 minutes. The detached cells were collected into 50-mL tubes and centrifuged at 350×g for 15 minutes. After two washes with 1×PBS supplemented with 2 mM EDTA, the cells were resuspended in Cell Staining Buffer (Biolegend, #420201) and plated at 1×10^6 cells per well in a 96-well V bottom plate. […] Data were analyzed using FlowJo (Tree Star).

Msr1^hu/hu ApoE^−/− mice = assay: In vivo LPS-induced cytokine production in serum; parameters: species or system mouse; conditions: 1.48 mg/kg, 2 hours before in vivo LPS
Description: as §1, §2, §4

[4] = tested on: LPS-induced IL-1β release in differentiated THP-1 cells; assay: LPS-mediated IL-1β release assay; type: cell-based, human; conditions: for IC50: Homo sapiens
Description: To test the anti-inflammatory properties of anti-MSR1 antibody-steroid conjugates in vitro, a lipopolysaccharide (LPS)-mediated IL-1β release assay was performed. For the assay, THP-1 cells were seeded onto 96 well plates at 40,000 cells/well in media containing RPMI supplemented with 10% FBS and pencillin/streptomycinin and differentiated with 200 nM Phorbol Myristate Acetate (PMA) for 3 days. After the 3-day differentiation period, three-fold serial dilutions of antibody drug conjugates, unconjugated antibodies, or free payloads in fresh media were added to the cells at final concentration ranging from 100 nM to 0.01 nM. Media alone served as a blank control. Subsequently at 24, 48, or 72 hours later, cells were treated with 100 ng/ml LPS (InVivoGen, Cat #tlrl-eklps) for 5 hours. The cell media was then collected, and IL-1β levels were measured using a V-PLEX Proinflammatory Panel 1 human kit (Meso Scale Diagnostics, Cat #15049D-2) as per manufacturer's instructions. Subsequently, the plate was read on a Meso Scale Diagnostics instrument.
IC50 values were determined from a four-parameter logistic equation over a 10-point response curve (GraphPad Prism). All IC50 values are expressed in M (molar) concentration. The IC50 values and IL-1β amount at the maximum concentration of antibody-steroid conjugates or controls are shown in Table 22 each of the time point tested.

S. aureus NRS384 = assay: Broth minimum inhibitory concentration (MIC) assay; type: cell-based; conditions: S. aureus NRS384, TSB, 24h, 37° C.
Description: To test the efficacy of rifamycin analogs of the disclosure in vitro, a broth growth inhibition assay was developed. For the assay, S. aureus NRS384 was grown in Tryptic Soy Broth (TSB) overnight, then sub-cultured 1:50 in fresh TSB and grown for an additional two hours. The culture was then pelleted via centrifugation and washed twice in PBS. The culture was then diluted to 1×10^4 cfu/mL in TSB and 50 μL of the suspension was added per well to a 96 well microtiter dish in duplicate. A dilution series of the indicated antibiotic (an analog according to the disclosure or a previously known analog Rifampicin) was added 1:1 for a final starting concentration of 1×10^−5 M with 1:3 dilutions.

[5] = tested on: intracellular S. aureus NRS384 in THP-1 macrophages; assay: Intracellular S. aureus killing assay with rifamycin analogs (Example 44); type: cell-based; conditions: for intracellular S. aureus killing (in words): infected THP-1 macrophages, 2h treatment, compared to rifampicin; for Intracellular killing MIC: lowest concentration that resulted in intracellular S. aureus eradication, THP-1 macrophages
Description: The rifamycin analog compounds' activity against S. aureus was tested in an intracellular “killing” assay.
THP-1 monocytic cell line was grown in media (RMPI+10% FBS+1% Penicillin/Streptomycin), then seeded at a density of 1e5 cells/well in a 96 well plate and differentiated into macrophages for three days prior to infection using 200 nM PMA. An overnight culture of S. aureus NRS384 was grown in RPMI, washed twice with PBS and resuspended at 1e7 cfu/mL in PBS. THP-1 were washed with warm media (RMPI without FBS) to remove the Penicillin/Streptomycin and then infected with the S. aureus suspension at a multiplicity of infection of 10:1 (S. aureus: macrophages). Plates were spun at 300×g for 5 minutes to synchronize adhesion of the bacteria, then incubated at 37° C. for 2 hours. Free-floating bacteria were removed by washing 2× with warm media and remaining extracellular S. aureus were killed by addition of media containing gentamicin (50 ug/mL). After 1h, media was aspirated and the indicated compound was added to infected macrophages in media containing 50 μg/mL gentamicin to prevent extracellular growth of S. aureus. After 2h, plates were washed 2× with warm RPMI without FBS, and 100 ul of THP-1 lysis buffer (0.1% Triton in PBS) was added to each well. S. aureus survival was enumerated by colony forming units through serial dilution and plating onto TSA.

[6] = administered 2 hours before peritoneal cell isolation, ex vivo LPS

With CCCC1O[C@@H]2C[C@H]3[C@@H]4C[C@H](F)C5=CC(=O)C=C[C@]5(C)[C@@]4(F)[C@@H](O)C[C@]3(C)C2(C(=O)CNC(=O)OCc2ccc(NC(=O)[C@H](CCCNC(N)=O)NC(=O)[C@@H](NC(=O)[C@@H](CCCCNC(=O)COC3CCCCCc4c3nnn4CC3OC4OC5C(CO)OC(OC6C(CO)OC(OC7C(CO)OC(OC8C(CO)OC(OC9C(CO)OC(OC3C(O)C4O)C(O)C9O)C(O)C8O)C(O)C7O)C(O)C6O)C(O)C5O)NC(=O)CCOCCOCCOCCOCCNC(=O)CCC(=O)N3Cc4ccccc4C#Cc4ccccc43)C(C)C)cc2)O1 (stereo partly drawn) [LP14] as the compound, how does the solubility [1] read?
The solubility was 26 µg/mL (≈ 9.64 µM).

Which results are given for CCCC1O[C@@H]2C[C@H]3[C@@H]4C[C@H](F)C5=CC(=O)C=C[C@]5(C)[C@@]4(F)[C@@H](O)C[C@]3(C)[C@]2(C(=O)CN)O1 (mixture of isomers) [P4, (1S,2S,4R,6R,8S,9S,11S,12R,13S,19S)-8-(2-Aminoacetyl)-12,19-difluoro-11-hydroxy-9,13-dimethyl-6-propyl-5,7-dioxapentacyclo[10.8.0.0^2,9.0^4,8.0^13,18]icosa-14,17-dien-16-one]?
Cytokine IL-6 [2, 6]: 12.98 ± 5.8**** ng/mL; Cytokine KC-GRO [2, 6]: 2.6 ± 1.3** ng/mL; Cytokine TNF-α [2, 6]: 0.43 ± 0.06** ng/mL; effect on ex vivo LPS-induced cytokine production (IL-6, KC-GRO, TNF-α) by peritoneal cells ([2]; i.p. dosing 24, 48, 72 hours (conjugates, antibodies) or 2 hours (free steroids) before cell harvest, 10 ng/mL LPS 18 hours): Comparable inhibition of LPS-induced immune responses; LPS-mediated expression of CD80, pMΦ Cells ([3]; hMSR1+F4/80+CD11b+ peritoneal macrophages): 54.7 ± 3.8 % relative to PBS/LPS-treatment; LPS-mediated expression of CD80, non-pMΦ Cells ([3]; hMSR1−F4/80−CD11b− cells): 93.02 ± 4.4 % relative to PBS/LPS-treatment; Cytokine IL-6 in serum (Msr1^hu/hu ApoE^−/− mice): 3.51 ± 0.7 ng/mL; Cytokine KC-GRO in serum (Msr1^hu/hu ApoE^−/− mice): 4.1 ± 1.5 ng/mL; Cytokine TNF-α in serum (Msr1^hu/hu ApoE^−/− mice): 0.09 ± 0.02 ng/mL; IL1beta released at max concentration tested ([4]; 24 hour treatment before LPS): 43.39 pg/mL; IL1beta released at max concentration tested ([4]; 48 hour treatment before LPS): 9.3 pg/mL; IL1beta released at max concentration tested ([4]; 72 hour treatment before LPS): 12.95 pg/mL; IC50 ([4]; THP-1, 24-hour time point, 100 ng/ml LPS for 5 hours, read-out: IC50, inhibition of LPS-induced IL-1β secretion): 0.849 nM; IC50 ([4]; THP-1, 48-hour time point, 100 ng/ml LPS for 5 hours, read-out: IC50, inhibition of LPS-induced IL-1β secretion): 1.02 nM; IC50 ([4]; THP-1, 72-hour time point, 100 ng/ml LPS for 5 hours, read-out: IC50, inhibition of LPS-induced IL-1β secretion): 1.2 nM; IC50 ([4]; THP-1, 24 hour treatment before LPS, read-out: EC50 (the source's name)): 0.849 nM; IC50 ([4]; THP-1, 48 hour treatment before LPS, read-out: EC50 (the source's name)): 1.02 nM; IC50 ([4]; THP-1, 72 hour treatment before LPS, read-out: EC50 (the source's name)): 1.2 nM

Which results are given for CO[C@H]1/C=C/O[C@@]2(C)Oc3c(C)c(O)c4c(=O)c(c5oc6cc(OCCN(C)C)ccc6nc-5c4c3C2=O)NC(=O)/C(C)=C\C=C\[C@H](C)[C@H](O)[C@@H](C)[C@@H](O)[C@@H](C)[C@H](OC(C)=O)[C@@H]1C [R16a]?
S. aureus Broth MIC (S. aureus NRS384): 1.5 nM; intracellular S. aureus killing (in words) [5]: increased intracellular S. aureus killing capacity compared to rifampicin; also recorded: highest activity; Intracellular killing MIC [5]: 4.0E−08

Which “S. aureus Broth MIC” value (S. aureus NRS384) does the source give for CO[C@H]1/C=C/O[C@@]2(C)Oc3c(C)c(O)c4c(=O)c(c5oc6cc(OC7CCNCC7)ccc6nc-5c4c3C2=O)NC(=O)/C(C)=C\C=C\[C@H](C)[C@H](O)[C@@H](C)[C@@H](O)[C@@H](C)[C@H](OC(C)=O)[C@@H]1C [R14] here?
The value was 41 nM.

And the “intracellular S. aureus killing (in words)” value [5]?
Its value is “increased intracellular S. aureus killing capacity compared to rifampicin”.

What about the “Intracellular killing MIC” value [5] of the same compound?
The value was 1.0E−06.

Which “S. aureus Broth MIC” value (S. aureus NRS384) does the source give for CO[C@H]1/C=C/O[C@@]2(C)Oc3c(C)c(O)c4c(=O)c(c5n(C)c6cc(O)ccc6nc-5c4c3C2=O)NC(=O)/C(C)=C\C=C\[C@H](C)[C@H](O)[C@@H](C)[C@@H](O)[C@@H](C)[C@H](OC(C)=O)[C@@H]1C [R1d, Rifamycin 4-OH-Phenol N-Methyl Analogs] here?
The value was 370 nM.

What about the “Intracellular killing MIC” value [5] of the same compound?
The value was greater than 1.0E−06.
